Assay results from patent US7045516B1, “Benzoxazole derivatives and drugs containing the same as the active ingredient” (Koichi Shudo, priority 1998, dated 2006).
Read-outs that look alike come from different tables or passages of the source.

What was measured:
5-HT3 receptor = molecular target: T1, 5-HT3 receptor (Cavia porcellus, UniProt O70212); assay: Test for 5-HT3 receptor activating action and antagonism, guinea pig ileum longitudinal muscle contraction; type: cell-based; conditions: for inhibition at 10 µM: inhibitory ratio of contraction by 10 μM 5-HT in sample treated beforehand with 10 μM compound, guinea pig ileum longitudinal muscle; for EC50: negative logarithm of molar concentration giving 50% maximum contraction, read-out: Activating action pD2 (converted); for Activating action i.a.: ratio of maximum contraction by compound relative to maximum contraction with 10 μM 5-HT (defined as 1)
T1 construct: From ileum of Hartley male guinea pigs (500 g to 800 g) longitudinal muscle samples of about 20 mm were prepared; from tissue; host or cells: guinea pig ileum longitudinal muscle
T1 sequence (O70212 20-490): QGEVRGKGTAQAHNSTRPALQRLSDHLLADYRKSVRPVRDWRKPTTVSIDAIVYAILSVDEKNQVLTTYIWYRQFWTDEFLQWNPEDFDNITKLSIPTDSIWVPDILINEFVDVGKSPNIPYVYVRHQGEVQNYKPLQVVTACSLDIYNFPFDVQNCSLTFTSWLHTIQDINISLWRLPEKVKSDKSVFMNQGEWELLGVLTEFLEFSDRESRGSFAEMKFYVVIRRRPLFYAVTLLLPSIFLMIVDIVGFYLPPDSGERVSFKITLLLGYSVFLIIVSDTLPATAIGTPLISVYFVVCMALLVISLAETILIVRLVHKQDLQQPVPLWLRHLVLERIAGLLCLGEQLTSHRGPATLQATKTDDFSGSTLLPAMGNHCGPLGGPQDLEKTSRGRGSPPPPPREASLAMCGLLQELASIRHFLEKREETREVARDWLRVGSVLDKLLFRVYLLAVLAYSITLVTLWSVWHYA
Description: From ileum of Hartley male guinea pigs (500 g to 800 g) longitudinal muscle samples of about 20 mm were prepared. The samples were suspended at a resting tension of about 0.5 g in Magnus tubes, and isometric contraction reaction was measured. The samples were treated beforehand twice with 0.3 μM of 5-HT for 1 hour to desensitize the 5-HT4 receptors, and then given with 5-HT at a concentration of 0.1 to 30 μM to examine dose-dependent contraction reaction via the 5-HT3 receptors. […] The index of the 5-HT3 receptor activating action, i.a., is represented as a ratio of the maximum reaction obtained by each compound relative to the maximum contraction reaction obtained with 10 μM of 5-HT, which is defined to be 1. The index of strength of binding with the 5-HT3 receptor, pD2, is represented with a negative logarithmic value of a concentration (molar concentration) that gave 50% maximum contraction reaction for each compound. As for the antagonistic activity of each compound against the 5-HT3 receptor, inhibitory ratio was calculated, which represents a ratio of contraction obtained by applying 10 μM of 5-HT to a sample treated beforehand with 10 μM of each compound relative to the contraction obtained by applying 10 μM of 5-HT to an untreated sample.

[1] = system: rat diarrhea under restriction stress; assay: Inhibitory action for rat diarrhea under restriction stress; type: in vivo; conditions: oral, 30 min before restraint, male Wistar rats, 3 hours, nonlinear least square method
Description: L. Williams et al. [GASTROENTEROLOGY, 94, 611–621 (1988)] was determined as follows, and the results were analyzed by the nonlinear least square method. 8-Week old male Wistar rats were starved from the evening of the day before the test. Each test compound was orally administered to the rats. After 30 minutes, the rats were constrained by binding of their fore-limbs and hind-limbs with wires. The rats were left in individual gages on white sheets under luminescent lamps for 3 hours. […] The test was performed with groups of rats each consisting of 8 rats.

[2] = system: large bowel transportation ability of normal mice; assay: Effect on large bowel transportation ability of normal mice (glass bead excretion); type: in vivo, mouse; conditions: ddY male mice, bead inserted after 30 minutes
Description: G. et al. [Drug Dev. Res., 9, 241-247, (1986)] was determined as follows. Each test compound was orally administered to 5- to 7-week old ddY male mice starved for about 4 hours. […] After the insertion of the glass bead, time (second) from the insertion to excretion of the bead from the anus was measured, and the time was used as an index of large bowel transportation ability. The test was performed by using groups of mice each consisting of 9 to 11 mice, and all of the procedures were performed under no anesthesia.

Reverse mutation test = assay: Reverse mutation test
Description: A reverse mutagenicity test was performed using the compound of Example 1 (b) of the present specification, hydrochloride of 5,7-dimethyl-2-(1-piperazinyl)benzoxazole (C), hydrochloride of 5-chloro-7-methyl-2-(4-methyl-1-piperazinyl)benzoxazole (D), and hydrochloride of 5-chloro-7-methyl-2-(4-methyl-1-homopiperazinyl) benzoxazole (E) (compounds disclosed in Japanese Patent Publication (KOKAI) No. 10-29987/1998), and the compound described in Reference Example 4 of the present specification, i.e., hydrochloride of 5-chloro-7-methyl-2-(1-piperazinyl) benzoxazole (F) according to the method of T. Matsushima et al. (Noropoth K. H., Springer, Berlin-Heidelberg-New York, “Short-Term Test Systems For Detecting Carcinogens”, pp. 273–285, 1980) referred by the guideline 471 of ORGANIZATION FOR ECONOMIC CO-OPERATION AND DEVELOPMENT.

[3] = Metabolic activity in human liver, in vitro system with S9 fraction; type: in vitro ADME; conditions: 50 μmol/L test compound, 1 mg/mL human liver S9, NADPH production system, 37 °C, 15 minutes
Description: The test was performed in an in vitro system utilizing human liver S9 fraction in the presence of an NADPH production system described below. A reaction mixture of a total volume of 125 μL containing components at given final concentrations was prepared (50 μmol/L of test compound, 6 mmol/L of MgCl2.6H2O, 1 mmol/L of β-NADP^+, 10 mmol/L of glucose-6-phosphate (G-6-P), 0.7 U/mL of G-6-P dehydrogenase, 100 mmol/L of potassium phosphate (pH 7.4), 0.1 mmol/L of EDTANa2, and 1 mg/mL of human liver S9), and incubated at 37 C.° for 15 minutes. The reaction was stopped by the addition of 125 μL of N,N-dimethylformamide containing a substance for internal standard. The reaction mixture was centrifuged (2,000×g, 10 minutes), and the supernatant was subjected to HPLC analysis to determine the concentration of unchanged substance. Consumed amount was calculated from the concentration of unchanged substance, and the metabolic rate was represented as activity per unit amount of protein.

[4] = method of Matsushima et al., OECD guideline 471

Compound: Cl.Nc1cc(Cl)cc2nc(N3CCCNCC3)oc12 [Example 8, 7-Amino-5-chloro-2-(1-homopiperazinyl) benzoxazole hydrochloride]
- inhibition at 10 µM (5-HT3 receptor): 83%
- EC50 (5-HT3 receptor): 437 nM
- Activating action i.a. (5-HT3 receptor): 0.55

Compound: Clc1cc(Cl)c2oc(N3CCCNCC3)nc2c1 [Example 9, 5,7-Dichloro-2-(1-homopiperazinyl) benzoxazole]
- inhibition at 10 µM (5-HT3 receptor): 97%
- EC50 (5-HT3 receptor): 56.2 nM
- Activating action i.a. (5-HT3 receptor): 0.13

Compound: Cc1c(Cl)cc2nc(N3CCCNCC3)oc2c1Cl [Example 10, 5,7-Dichloro-2-(1-homopiperazinyl)-6-methylbenzoxazole]
- inhibition at 10 µM (5-HT3 receptor): 96%
- EC50 (5-HT3 receptor): 56.2 nM
- Activating action i.a. (5-HT3 receptor): 0.09

Compound: Cc1c(Cl)cc2nc(N3CCCNCC3)oc2c1C [Example 11, 5-Chloro-2-(1-homopiperazinyl)-6,7-dimethylbenzoxazole]
- inhibition at 10 µM (5-HT3 receptor): 89%
- EC50 (5-HT3 receptor): 35.5 nM
- Activating action i.a. (5-HT3 receptor): 0.14

Compound: Clc1cc(NCc2ccccc2)c2oc(N3CCCNCC3)nc2c1 [Example 12, 7-(Benzylamino)-5-chloro-2-(1-homopiperazinyl) benzoxazole]
- inhibition at 10 µM (5-HT3 receptor): 88%
- EC50 (5-HT3 receptor): 191 nM
- Activating action i.a. (5-HT3 receptor): 0.05

Compound: CS(=O)(=O)Nc1cc(Cl)cc2nc(N3CCCNCC3)oc12.Cl [Example 14, 5-Chloro-7-methanesulfonylamino-2-(1-homopiperazinyl) benzoxazole hydrochloride]
- inhibition at 10 µM (5-HT3 receptor): 46%
- EC50 (5-HT3 receptor): 3390 nM
- Activating action i.a. (5-HT3 receptor): 0.13

Compound: CC(C)C(=O)Nc1cc(Cl)cc2nc(N3CCCNCC3)oc12.Cl [Example 16, 5-Chloro-7-isobutyrylamino-2-(1-homopiperazinyl) benzoxazole hydrochloride]
- inhibition at 10 µM (5-HT3 receptor): 15%
- EC50 (5-HT3 receptor): 5620 nM
- Activating action i.a. (5-HT3 receptor): 0.10

Compound: Cc1cc(Cl)cc2nc(N3CCNCC3)oc12 [F, 5-chloro-7-methyl-2-(1-piperazinyl)benzoxazole, reference compound]
- inhibition at 10 µM (5-HT3 receptor): 90%
- EC50 (5-HT3 receptor): 27.5 nM
- Activating action i.a. (5-HT3 receptor): 0.14

Compound: CN1C2CCCC1CC(NC(=O)c1nn(C)c3ccccc13)C2 (stereo not drawn) [G, Granisetron]
- ED50 ([1]; Rattus norvegicus): 0.025 mg/kg
- time from insertion to excretion of glass bead ([2]; dose 3 mg/kg oral): 206.44 s
- time from insertion to excretion of glass bead ([2]; dose 10 mg/kg oral): 258.47 s
- time from insertion to excretion of glass bead ([2]; dose 30 mg/kg oral): 475.93 s

Compound: Cc1cc(Cl)cc2nc(N3CCN(C)CC3)oc12.Cl [Hydrochloride of D, hydrochloride of 5-chloro-7-methyl-2-(4-methyl-1-piperazinyl) benzoxazole]
- reverse mutagenicity (Reverse mutation test; [4]): negative
- Metabolic activity [3]: 0.87 nmol/min/mg protein

Compound: Cc1cc(Cl)cc2nc(N3CCCN(C)CC3)oc12.Cl [Hydrochloride of E, hydrochloride of 5-chloro-7-methyl-2-(4-methyl-1-homopiperazinyl)benzoxazole]
- reverse mutagenicity (Reverse mutation test): negative
- ED50 value [1]: 0.0041 mg/kg
- time from insertion to excretion of glass bead ([2]; dose 3 mg/kg oral): 271.91 s
- time from insertion to excretion of glass bead ([2]; dose 10 mg/kg oral): 318.95 s
- time from insertion to excretion of glass bead ([2]; dose 30 mg/kg oral): 248.56 s

Compound: Cc1cc(Cl)cc2nc(N3CCNCC3)oc12.Cl [hydrochloride of Compound F, hydrochloride of 5-chloro-7-methyl-2-(1-piperazinyl) benzoxazole]
- reverse mutagenicity (Reverse mutation test; [4]): positive
